Each block holds one compound with its values, some of them ahead of it.
Columns and labels:
[1] = biological target: cAMP-dependent protein kinase catalytic subunit gamma (Homo sapiens) (UniProt P22612); assay: Selectivity interaction (LanthaScreen Eu Kinase Binding Assay) EUB0001632a PRKACG; conditions: at 10 µM
[2] = biological target: Non-receptor tyrosine-protein kinase TYK2 (Homo sapiens, UniProt P29597); assay: Selectivity interaction (KinomeScan (DiscoverX)) EUB0000666a TYK2; conditions: at 10 µM
Chain of Non-receptor tyrosine-protein kinase TYK2 (P29597 whole entry, canonical isoform): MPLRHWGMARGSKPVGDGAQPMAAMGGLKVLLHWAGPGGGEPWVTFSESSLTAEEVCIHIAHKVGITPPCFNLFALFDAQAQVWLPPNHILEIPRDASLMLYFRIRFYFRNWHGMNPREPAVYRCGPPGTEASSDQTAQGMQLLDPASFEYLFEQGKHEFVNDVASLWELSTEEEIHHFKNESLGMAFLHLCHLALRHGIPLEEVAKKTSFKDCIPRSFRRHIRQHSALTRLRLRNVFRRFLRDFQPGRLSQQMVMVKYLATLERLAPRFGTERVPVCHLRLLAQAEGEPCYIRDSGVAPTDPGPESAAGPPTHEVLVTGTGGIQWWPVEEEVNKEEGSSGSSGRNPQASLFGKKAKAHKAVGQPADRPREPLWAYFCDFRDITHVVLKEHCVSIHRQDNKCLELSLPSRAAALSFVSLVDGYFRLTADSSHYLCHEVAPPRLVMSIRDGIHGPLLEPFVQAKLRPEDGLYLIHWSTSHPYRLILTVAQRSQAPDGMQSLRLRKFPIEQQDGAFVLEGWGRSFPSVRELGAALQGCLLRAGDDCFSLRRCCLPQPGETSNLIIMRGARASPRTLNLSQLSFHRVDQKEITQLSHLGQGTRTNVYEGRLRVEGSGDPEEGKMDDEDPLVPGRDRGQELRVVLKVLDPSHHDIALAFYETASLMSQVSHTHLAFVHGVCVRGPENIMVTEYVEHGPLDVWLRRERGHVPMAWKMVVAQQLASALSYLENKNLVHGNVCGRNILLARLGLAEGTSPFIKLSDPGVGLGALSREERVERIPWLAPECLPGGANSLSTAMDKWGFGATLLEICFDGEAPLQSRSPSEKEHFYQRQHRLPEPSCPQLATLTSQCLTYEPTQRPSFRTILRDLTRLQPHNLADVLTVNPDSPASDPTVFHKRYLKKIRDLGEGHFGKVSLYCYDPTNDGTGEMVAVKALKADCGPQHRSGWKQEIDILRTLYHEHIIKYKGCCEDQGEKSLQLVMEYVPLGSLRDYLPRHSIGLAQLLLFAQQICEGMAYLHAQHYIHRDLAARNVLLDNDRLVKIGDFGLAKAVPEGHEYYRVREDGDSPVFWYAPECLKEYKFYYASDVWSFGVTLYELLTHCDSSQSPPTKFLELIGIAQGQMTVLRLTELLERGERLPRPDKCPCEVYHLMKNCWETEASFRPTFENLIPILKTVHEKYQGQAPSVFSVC

[3] = biological target: Casein kinase I isoform alpha (Homo sapiens, UniProt P48729); assay: Selectivity interaction (SelectScreen profiling (Invitrogen)) EUB0000607a CSNK1A1; conditions: at 2 µM
Chain of Casein kinase I isoform alpha (P48729 2-337 limits assumed): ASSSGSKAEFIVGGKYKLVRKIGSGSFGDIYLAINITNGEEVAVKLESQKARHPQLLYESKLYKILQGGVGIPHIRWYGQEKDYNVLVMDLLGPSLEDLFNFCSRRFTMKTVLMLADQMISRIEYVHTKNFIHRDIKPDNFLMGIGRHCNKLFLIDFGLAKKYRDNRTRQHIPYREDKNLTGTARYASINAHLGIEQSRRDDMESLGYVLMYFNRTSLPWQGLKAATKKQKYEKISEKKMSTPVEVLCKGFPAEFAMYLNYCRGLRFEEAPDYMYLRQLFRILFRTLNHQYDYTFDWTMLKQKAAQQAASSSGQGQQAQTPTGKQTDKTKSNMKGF

[4] = biological target: T1, Serine/threonine-protein kinase Nek8 (Homo sapiens) (UniProt Q86SG6); assay: Selectivity interaction (ActivX KiNativ screen (kinase selectivity in THP-1 cell lysates)) EUB0000639a NEK8; assay type: subcellular; conditions: lysate
T1 sequence (whole entry): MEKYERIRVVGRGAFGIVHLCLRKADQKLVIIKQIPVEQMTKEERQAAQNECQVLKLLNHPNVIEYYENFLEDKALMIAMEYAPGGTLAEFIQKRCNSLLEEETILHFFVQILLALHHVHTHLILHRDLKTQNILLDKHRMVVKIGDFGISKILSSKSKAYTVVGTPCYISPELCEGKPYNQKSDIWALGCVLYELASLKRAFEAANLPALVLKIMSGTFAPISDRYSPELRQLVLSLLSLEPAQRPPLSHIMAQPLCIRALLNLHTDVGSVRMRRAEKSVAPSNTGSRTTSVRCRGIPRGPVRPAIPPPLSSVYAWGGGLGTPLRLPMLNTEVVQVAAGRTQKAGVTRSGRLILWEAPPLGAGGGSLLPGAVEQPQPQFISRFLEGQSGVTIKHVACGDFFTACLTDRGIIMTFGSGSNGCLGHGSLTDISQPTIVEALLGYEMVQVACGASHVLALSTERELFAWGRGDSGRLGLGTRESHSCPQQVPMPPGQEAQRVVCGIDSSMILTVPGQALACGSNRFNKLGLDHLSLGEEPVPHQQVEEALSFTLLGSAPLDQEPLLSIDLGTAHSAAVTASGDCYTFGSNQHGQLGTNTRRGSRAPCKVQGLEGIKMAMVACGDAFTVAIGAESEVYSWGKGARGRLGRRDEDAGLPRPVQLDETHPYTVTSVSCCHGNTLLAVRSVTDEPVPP

[5] = biological target: T2, Mitogen-activated protein kinase kinase kinase 6 (Homo sapiens) (UniProt O95382); assay: Selectivity interaction (ActivX KiNativ screen (kinase selectivity in THP-1 cell lysates)) EUB0000639a MAP3K6; assay type: subcellular; conditions: lysate, at 0.04 µM
T2 sequence (whole entry): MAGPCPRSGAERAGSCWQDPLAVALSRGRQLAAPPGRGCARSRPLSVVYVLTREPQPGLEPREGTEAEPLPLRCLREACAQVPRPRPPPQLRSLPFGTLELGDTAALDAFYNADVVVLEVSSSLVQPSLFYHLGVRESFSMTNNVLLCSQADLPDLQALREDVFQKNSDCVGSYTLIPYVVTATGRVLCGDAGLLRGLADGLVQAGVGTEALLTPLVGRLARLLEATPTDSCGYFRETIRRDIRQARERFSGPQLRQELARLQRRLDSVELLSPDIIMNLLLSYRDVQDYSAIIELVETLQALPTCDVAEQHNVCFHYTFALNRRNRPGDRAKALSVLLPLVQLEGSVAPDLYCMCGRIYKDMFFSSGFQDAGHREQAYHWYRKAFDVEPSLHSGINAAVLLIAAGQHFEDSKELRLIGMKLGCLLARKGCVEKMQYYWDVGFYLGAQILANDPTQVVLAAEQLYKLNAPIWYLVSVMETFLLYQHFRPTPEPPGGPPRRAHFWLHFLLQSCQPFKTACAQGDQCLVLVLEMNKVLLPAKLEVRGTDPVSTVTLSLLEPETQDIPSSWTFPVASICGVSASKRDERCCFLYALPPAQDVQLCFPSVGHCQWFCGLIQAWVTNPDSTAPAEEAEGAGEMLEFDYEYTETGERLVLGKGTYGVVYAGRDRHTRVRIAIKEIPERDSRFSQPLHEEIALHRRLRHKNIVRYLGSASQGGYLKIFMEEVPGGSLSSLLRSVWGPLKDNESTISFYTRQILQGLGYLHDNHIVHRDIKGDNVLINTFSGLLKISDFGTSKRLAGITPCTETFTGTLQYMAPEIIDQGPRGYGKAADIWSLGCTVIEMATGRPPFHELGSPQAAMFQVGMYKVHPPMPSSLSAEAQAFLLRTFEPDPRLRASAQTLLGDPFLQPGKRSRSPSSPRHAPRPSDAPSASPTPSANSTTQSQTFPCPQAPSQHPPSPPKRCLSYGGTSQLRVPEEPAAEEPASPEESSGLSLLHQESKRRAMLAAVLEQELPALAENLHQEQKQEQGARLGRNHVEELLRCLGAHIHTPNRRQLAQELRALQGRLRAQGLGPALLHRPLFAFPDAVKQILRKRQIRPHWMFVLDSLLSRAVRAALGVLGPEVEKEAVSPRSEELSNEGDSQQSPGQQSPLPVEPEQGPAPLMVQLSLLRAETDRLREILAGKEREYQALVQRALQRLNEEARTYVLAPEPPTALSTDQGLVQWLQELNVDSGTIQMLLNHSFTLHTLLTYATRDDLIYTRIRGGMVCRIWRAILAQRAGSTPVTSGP

[6] = biological target: Histone-lysine N-methyltransferase ASH1L (Homo sapiens) (UniProt Q9NR48); assay: Selectivity interaction (Methyltransferase screen (Scintillation proximity assays)) EUB0000255b ASH1L
[7] = biological target: Serine/threonine-protein kinase tousled-like 2 (Homo sapiens) (UniProt Q86UE8); assay: Selectivity interaction (KinomeScan (DiscoverX)) EUB0001049a TLK2; conditions: at 1 µM
Chain of Serine/threonine-protein kinase tousled-like 2 (Homo sapiens) (Q86UE8 whole entry, looked up): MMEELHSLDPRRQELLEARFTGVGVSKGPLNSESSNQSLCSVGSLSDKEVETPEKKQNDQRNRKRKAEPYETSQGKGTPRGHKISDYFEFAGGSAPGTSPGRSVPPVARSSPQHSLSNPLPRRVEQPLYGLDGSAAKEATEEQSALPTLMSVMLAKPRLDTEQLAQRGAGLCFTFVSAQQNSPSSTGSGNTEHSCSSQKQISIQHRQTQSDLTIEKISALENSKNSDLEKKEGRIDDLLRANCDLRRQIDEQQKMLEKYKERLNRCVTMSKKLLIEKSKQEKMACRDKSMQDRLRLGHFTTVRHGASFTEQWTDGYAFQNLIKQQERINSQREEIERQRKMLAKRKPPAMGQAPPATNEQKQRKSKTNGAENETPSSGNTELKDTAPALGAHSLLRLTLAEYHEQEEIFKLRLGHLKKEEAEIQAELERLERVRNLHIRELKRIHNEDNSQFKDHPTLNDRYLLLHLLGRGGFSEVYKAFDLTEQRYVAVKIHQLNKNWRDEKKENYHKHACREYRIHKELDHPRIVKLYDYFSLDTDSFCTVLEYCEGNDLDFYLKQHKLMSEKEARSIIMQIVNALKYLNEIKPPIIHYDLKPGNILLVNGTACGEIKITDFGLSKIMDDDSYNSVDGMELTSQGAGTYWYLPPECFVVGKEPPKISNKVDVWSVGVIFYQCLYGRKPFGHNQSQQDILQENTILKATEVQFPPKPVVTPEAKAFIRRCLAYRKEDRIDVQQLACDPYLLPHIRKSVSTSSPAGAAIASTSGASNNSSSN

Chain of cAMP-dependent protein kinase catalytic subunit gamma (Homo sapiens) (P22612 2-351 limits assumed): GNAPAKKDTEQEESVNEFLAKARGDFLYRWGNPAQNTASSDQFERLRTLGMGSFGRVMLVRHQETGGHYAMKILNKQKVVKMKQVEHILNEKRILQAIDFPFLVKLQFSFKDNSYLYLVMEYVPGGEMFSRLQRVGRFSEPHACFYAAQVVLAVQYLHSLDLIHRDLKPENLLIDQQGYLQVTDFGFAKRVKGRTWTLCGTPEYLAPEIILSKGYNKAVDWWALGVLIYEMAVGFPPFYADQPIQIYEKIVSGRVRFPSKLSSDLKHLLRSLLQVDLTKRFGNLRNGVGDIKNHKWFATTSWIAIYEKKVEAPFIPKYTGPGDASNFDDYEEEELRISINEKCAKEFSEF

% of inhibition [1]: -38.1%
Compound: Cn1cc(-n2cnc3c(NCc4nc5cc(Cl)c(Cl)cc5[nH]4)nc(N4CCOCC4)nc32)cn1

Compound: O=C(NOC[C@H](O)CO)c1ccc(F)c(F)c1Nc1ccc(I)cc1F
% of control [2]: 100%

Compound: CNC(=O)Nc1ccc(-c2nc(N3CC4CCC(C3)O4)c3cnn(C4CCC5(CC4)OCCO5)c3n2)cc1
% of inhibition [3]: 2%

% of inhibition ([4]; at 0.01 µM): -12.6% | % of inhibition ([4]; at 0.04 µM): 9.8% | % of inhibition ([4]; at 0.2 µM): -2.6% | % of inhibition ([4]; at 1 µM): 3.4% | % of inhibition ([4]; at 5 µM): -20.5% | % of inhibition [5]: 3.6%
Compound: CC[C@@H]1[C@H](F)C(=O)N[C@@H]1COc1nccc2cc(C(N)=O)c(OC)cc12 [ZIMLOVISERTIB]

Compound: COCCN1CCC(c2cc(CN(C)C(=O)c3cccc(Oc4ccccc4)c3)ccn2)CC1
% activity ([6]; at 1 µM): > 95% | % activity ([6]; at 10 µM): > 90%

Compound: COc1cc(Nc2nc(C)cc(-c3cnn4nc(OC)ccc34)n2)cc(C(F)(F)F)c1
% of control [7]: 98%

Source: ChEMBL document CHEMBL5465560, “Selectivity Literature for EUbOPEN Chemogenomic Library” (2024)
